Data as given in ChEMBL document CHEMBL1201862, “PubChem BioAssay data set” (2004).
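Step 1: Grow cells in 96-well plates. Step 2: Expose to compound for 48 hours at 5 concentrations. Step 3: Interpolate endpoints linearly; if unreached, use highest concentration. GI50 = concentration required for 50% inhibition of growth.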 Calls of active or inactive are those of the source. No stated cut-off is given here; in the data, active = GI50 up to about 1.1 µM and inactive = higher.

Experiments:
Assay in all cases: growth of human tumour cells (NCI), 48 h
[1] = tested on: HCC 2998
[2] = tested on: HL-60
[3] = tested on: A498
[4] = tested on: SK-OV-3
[5] = tested on: OVCAR-4
[6] = tested on: NCI-H460
[7] = tested on: DMS-114
[8] = tested on: ACHN
[9] = tested on: HOP-92
[10] = tested on: SK-MEL-28
[11] = tested on: HT-29
[12] = tested on: A549
[13] = tested on: UACC-257
[14] = tested on: DLD-1
[15] = tested on: SF-268
[16] = tested on: HOP-62
[17] = tested on: SNB-19
[18] = tested on: RXF 393
[19] = tested on: PC-3
[20] = tested on: Hs-578T

| SMILES | GI50 [1] | GI50 [2] | GI50 [3] | GI50 [4] | GI50 [5] | GI50 [6] | GI50 [7] | GI50 [8] | GI50 [9] | GI50 [10] | GI50 [11] | GI50 [12] | GI50 [13] | GI50 [14] | GI50 [15] | GI50 [16] | GI50 [17] | GI50 [18] | GI50 [19] | GI50 [20] |
| --- | --- | --- | --- | --- | --- | --- | --- | --- | --- | --- | --- | --- | --- | --- | --- | --- | --- | --- | --- | --- |
| C/C(CC(=O)CCC(=O)Nc1cccc(C(F)(F)F)c1)=N\NC(=O)NN | > 100 µM (inactive) | > 100 µM (inactive) | > 100 µM (inactive) | > 100 µM (inactive) | > 100 µM (inactive) | > 100 µM (inactive) | > 100 µM (inactive) | > 100 µM (inactive) | > 100 µM (inactive) | > 100 µM (inactive) | > 100 µM (inactive) | > 100 µM (inactive) | > 100 µM (inactive) | > 100 µM (inactive) | > 100 µM (inactive) | > 100 µM (inactive) | > 100 µM (inactive) |  |  |  |
| CCCC(=O)N[C@H]1CCc2cc(OC)c(OC)c(OC)c2-c2ccc(SC)c(=O)cc21 | < 0.01 µM (active) | < 0.01 µM (active) | < 0.01 µM (active) | 0.143 µM (active) | 17.1 µM (inactive) | < 0.01 µM (active) | < 0.01 µM (active) | < 0.01 µM (active) | < 0.01 µM (active) | < 0.01 µM (active) | < 0.01 µM (active) | < 0.01 µM (active) |  | < 0.01 µM (active) | < 0.01 µM (active) | < 0.01 µM (active) | < 0.01 µM (active) | 0.175 µM (active) | < 0.01 µM (active) | < 0.01 µM (active) |
| COc1ccc(/C=C/c2nnc(S)[nH]2)cc1 | > 100 µM (inactive) | > 100 µM (inactive) | > 100 µM (inactive) |  | > 100 µM (inactive) | > 100 µM (inactive) | > 100 µM (inactive) | > 100 µM (inactive) | > 100 µM (inactive) | > 100 µM (inactive) | > 100 µM (inactive) | > 100 µM (inactive) | > 100 µM (inactive) | > 100 µM (inactive) | > 100 µM (inactive) |  | > 100 µM (inactive) | > 100 µM (inactive) |  |  |
| CC(=O)NNc1nc(C)c(C(=O)/C=C/c2ccc(N(C)C)cc2)s1 | > 100 µM (inactive) | > 100 µM (inactive) | > 100 µM (inactive) | > 100 µM (inactive) |  | > 100 µM (inactive) | > 100 µM (inactive) | > 100 µM (inactive) | > 100 µM (inactive) | > 100 µM (inactive) | > 100 µM (inactive) | > 100 µM (inactive) | > 100 µM (inactive) | > 100 µM (inactive) | > 100 µM (inactive) | > 100 µM (inactive) |  | 88.9 µM (inactive) |  |  |
| CCOc1ccc(NC(=O)C(=O)CC(=O)C2=C(C)Nc3ccccc3S2)cc1 | > 50 µM (inactive) |  | > 50 µM (inactive) | > 50 µM (inactive) | > 50 µM (inactive) | > 50 µM (inactive) | > 50 µM (inactive) | > 50 µM (inactive) | > 50 µM (inactive) | > 50 µM (inactive) | > 50 µM (inactive) | > 50 µM (inactive) | > 50 µM (inactive) | > 50 µM (inactive) | > 50 µM (inactive) | > 50 µM (inactive) | > 50 µM (inactive) | > 50 µM (inactive) |  |  |
| Cc1ccc(C2=C(c3ccccc3)C(O)(c3ccc(C)cc3)C(c3ccccc3)=C2c2ccc(C)cc2)cc1 | > 100 µM (inactive) | 14.4 µM (inactive) | > 100 µM (inactive) | > 100 µM (inactive) | > 100 µM (inactive) | > 100 µM (inactive) | > 100 µM (inactive) | > 100 µM (inactive) | > 100 µM (inactive) | > 100 µM (inactive) |  | > 100 µM (inactive) | > 100 µM (inactive) | > 100 µM (inactive) | > 100 µM (inactive) | > 100 µM (inactive) | > 100 µM (inactive) |  |  |  |
| COc1cc(C=O)c(-c2cc(OC)c(OC)cc2C=O)cc1OC | > 100 µM (inactive) | 36.8 µM (inactive) | > 100 µM (inactive) | > 100 µM (inactive) | > 100 µM (inactive) | 90.4 µM (inactive) | 24.3 µM (inactive) | > 100 µM (inactive) | > 100 µM (inactive) | 47.8 µM (inactive) | 76.2 µM (inactive) | > 100 µM (inactive) | > 100 µM (inactive) | 65 µM (inactive) | 46.7 µM (inactive) | > 100 µM (inactive) | > 100 µM (inactive) | 24.5 µM (inactive) |  |  |
